Drawing on US20230116972A1, “CD38 MODULATORS AND METHODS OF USE THEREOF” (Cytokinetics, Inc., priority 2021, published 2023), this text covers IC50 for 25 molecules.

The target in one test is T1, human CD38 (Homo sapiens, UniProt P28907).
T1 sequence (P28907 1-300): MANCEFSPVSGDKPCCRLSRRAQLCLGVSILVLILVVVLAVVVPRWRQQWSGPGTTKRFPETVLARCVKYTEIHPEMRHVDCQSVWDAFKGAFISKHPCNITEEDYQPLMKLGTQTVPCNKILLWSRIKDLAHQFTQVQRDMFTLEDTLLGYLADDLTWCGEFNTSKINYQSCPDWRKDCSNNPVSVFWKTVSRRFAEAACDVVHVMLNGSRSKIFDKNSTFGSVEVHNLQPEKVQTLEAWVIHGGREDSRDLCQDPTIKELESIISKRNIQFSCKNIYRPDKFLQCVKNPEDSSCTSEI
The test is described as follows: human recombinant CD38 enzyme assay (hydrolysis of NAD+). The class given is biochemical. The settings on record: human recombinant CD38, 0.4 nM enzyme, 62.5 μM NAD+; read-out: hCD38 BioChem IC50. The method in brief:
(§1)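 Inhibitors were titrated against purified CD38 hydrolysing NAD+ for 60 min at ambient temperature. Unconsumed substrate was quantified enzymatically via NADH-coupled resazurin reduction and fluorescence.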

The next test has as its target T2, mouse CD38 (Mus musculus, UniProt P56528).
T2 sequence (P56528 1-304): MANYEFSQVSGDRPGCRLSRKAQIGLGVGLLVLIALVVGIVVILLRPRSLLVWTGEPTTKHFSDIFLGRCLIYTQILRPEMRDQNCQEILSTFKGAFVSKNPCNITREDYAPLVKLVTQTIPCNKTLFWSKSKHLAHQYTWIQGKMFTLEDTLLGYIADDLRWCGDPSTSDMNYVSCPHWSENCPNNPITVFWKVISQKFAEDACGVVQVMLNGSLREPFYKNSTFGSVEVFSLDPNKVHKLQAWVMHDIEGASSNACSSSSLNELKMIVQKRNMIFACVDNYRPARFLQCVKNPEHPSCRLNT
Nature of the test: mouse recombinant CD38 enzyme assay (hydrolysis of NAD+). The settings on record: read-out: mCD38 BioChem IC50. The class given is biochemical. In short, it runs like this: as §1

In test [1] the target is T3, endogenous CD38 in HL60 cells (Homo sapiens, UniProt P28907).
T3 construct: endogenous in cells; host or cells: HL60 (leukemic cells, treated with all-trans retinoic acid)
T3 sequence (P28907 1-300): T1 sequence (P28907 1-300)
The test is described as follows: cellular CD38 assay in HL60 cells (cellular NAD levels). The class given is cell-based. The settings on record: all-trans retinoic acid, 24 hours, read-out: hCD38 HL60 ATRA NAD Cell Diaphorase IC50. The protocol:
The compounds described herein were also assayed for their ability to inhibit the endogenous CD38 in a native cellular environment in the cellular CD38 assay, which measures the ability of the compound to modulate cellular NAD levels. […] The assays were initiated by plating 20 μL of HL60 cells in culture medium, at a density of 20000 cells per well to a 384-well Corning™ Multiwell Plates. Compounds in DMSO were added to the plates in a volume of 120 nL using the Labcyte Echo Liquid Handlers. […] The plates are then incubated for 24 hours. 50 μL of a readout-solution containing 0.2 U/mL Diaphorase enzyme, 40 uM resazurin, 10 uM FMN, 0.8 U/mL Alcohol dehydrogenase, 3% ethanol, 0.4 mg/mL bovine serum albumin, 0.2% Triton X-100 in 100 mM Tris-HCl, 30 mM EDTA, pH 8.4. The plates were read for fluorescence (Excitation/Emission=540 nm/590 nm) using an EnVision plate reader after 60 mins of incubation at ambient temperature. Note that, in Table 5, the “Compound No” corresponds to the compound numbers in Table 1.

The IC50 is the midpoint of a concentration-inhibition curve. For `O=C(Nc1cncc(F)c1)c1cc(-n2ccnc2)ccn1` [Compound 3, N-(5-fluoropyridin-3-yl)-4-(1H-imidazol-1-yl)picolinamide], the IC50 stood at 1090 nM at human CD38, 234 nM on mouse CD38 and 6780 nM in test [1].
For `O=C(N[C@H]1CC[C@H](C(F)F)CC1)c1ccnc(-c2cncs2)n1` [Compound 87, N-((1r,4r)-4-(difluoromethyl)cyclohexyl)-2-(thiazol-5-yl)pyrimidine-4-carboxamide], the values for the IC50 (at human CD38; on mouse CD38; in test [1]) were 562 nM, 138 nM and 10100 nM, respectively.
As for `CO[C@H]1CC[C@H](NC(=O)c2cc([C@H]3CC[C@H](OC)CC3)nc(-c3cncn3C)n2)CC1` [Compound 316, N,6-bis((1r,4R)-4-methoxycyclohexyl)-2-(1-methyl-1H-imidazol-5-yl)pyrimidine-4-carboxamide], the IC50 on human CD38 worked out at 15 nM; on mouse CD38, 2 nM; in test [1], 1470 nM.
The like results for `Cc1cc(-c2cncn2C)nc(C(=O)Nc2ccc(C(F)F)nc2)n1` [Compound 202, N-(6-(Difluoromethyl)pyridin-3-yl)-4-methyl-6-(1-methyl-1H-imidazol-5-yl)pyrimidine-2-carboxamide] were, in that order, 2.8 nM, 1.1 nM and 229 nM.
For `O=C(NC1CCC(F)(F)CC1)c1cc(C2CCOCC2)nc(-n2ccnc2)n1` [Compound 194, N-(4,4-difluorocyclohexyl)-2-(1H-imidazol-1-yl)-6-(tetrahydro-2H-pyran-4-yl)pyrimidine-4-carboxamide], in that order: 111 nM, 63.6 nM and 7160 nM.
For `Cc1ccc(-n2ccnc2)nc1C(=O)N[C@H]1CC[C@H](C(F)F)CC1` [Compound 101, N-(4-(difluoromethyl)cyclohexyl)-6-(1H-imidazol-1-yl)-3-methylpicolinamide], in that order: 210 nM, 42 nM and 8310 nM.
Consider `C[C@H]1CC[C@H](NC(=O)c2cc(C(F)(F)F)nc(-n3ccnc3)n2)CC1` [Compound 164, 2-(1H-imidazol-1-yl)-N-((1r,4r)-4-methylcyclohexyl)-6-(trifluoromethyl)pyrimidine-4-carboxamide], for which the IC50 turned out to be 44 nM on human CD38, 11 nM at mouse CD38 and 4000 nM in test [1].
For `O=C(Nc1cccnc1)c1cc(C(F)(F)F)cc(-n2ccnc2)n1` [Compound 40, 6-(1H-imidazol-1-yl)-N-(pyridin-3-yl)-4-(trifluoromethyl)picolinamide], in that order: 6 nM, 2 nM and 959 nM.
The like results for `Cn1cncc1-c1ccnc(C(=O)N[C@H]2CC[C@H](OCc3ccccc3)CC2)n1` [Compound 312, N-((1r,4r)-4-(benzyloxy)cyclohexyl)-4-(1-methyl-1H-imidazol-5-yl)pyrimidine-2-carboxamide] were, in that order, 26.5 nM, 10.2 nM and 2790 nM.
In the case of `Cc1ccc(NC(=O)c2cccc(-n3ccnc3)n2)cn1` [Compound 20, 6-(1H-imidazol-1-yl)-N-(6-methylpyridin-3-yl)picolinamide], the figures for the IC50 (on human CD38; at mouse CD38; in test [1]) were 9 nM, 8 nM and 365 nM, respectively.
For `O=C(Nc1cccnc1)c1ccnc(-n2ccnc2)n1` [Compound 37, 2-(1H-imidazol-1-yl)-N-(pyridin-3-yl)pyrimidine-4-carboxamide], in that order: 4 nM, 6 nM and 339 nM.
The like results for `Cn1cncc1-c1nc(C(=O)NC2CC3(C2)CC(F)(F)C3)cc(C(F)(F)F)n1` [Compound 154, N-(6,6-difluorospiro[3.3]heptan-2-yl)-2-(1-methyl-1H-imidazol-5-yl)-6-(trifluoromethyl)pyrimidine-4-carboxamide] were, in that order, 11 nM, 1 nM and 3150 nM.
For `Cc1ccc(-n2ccnc2)nc1C(=O)Nc1cccnc1` [Compound 26, 6-(1H-imidazol-1-yl)-3-methyl-N-(pyridin-3-yl)picolinamide], in that order: 16 nM, 7 nM and 629 nM.
Turning to `Cn1cncc1-c1ccnc(C(=O)Nc2ccc(OC(F)F)nc2)n1` [Compound 276, N-(6-(difluoromethoxy)pyridin-3-yl)-4-(1-methyl-1H-imidazol-5-yl)pyrimidine-2-carboxamide], the IC50 on human CD38 is 1.4 nM; at mouse CD38, 4.4 nM; in test [1], 209 nM.
The like results for `COCCOc1cc(C(=O)Nc2ccc(C(F)F)nc2)nc(-n2ccnc2)c1` [Compound 244, N-(6-(difluoromethyl)pyridin-3-yl)-6-(1H-imidazol-1-yl)-4-(2-methoxyethoxy)picolinamide] were, in that order, 1.9 nM, 1 nM and 499 nM.
The like results for `CC(C)(O)c1cc(C(=O)Nc2ccc(C(F)F)nc2)nc(-n2ccnc2)n1` [Compound 158, N-(6-(difluoromethyl)pyridin-3-yl)-6-(2-hydroxypropan-2-yl)-2-(1H-imidazol-1-yl)pyrimidine-4-carboxamide] were, in that order, 228 nM, 185 nM and 3980 nM.
On to `Cc1cc(-c2cncn2C)nc(C(=O)Nc2ccc(C(F)(F)F)nc2)n1` [Compound 235, 4-methyl-6-(1-methyl-1H-imidazol-5-yl)-N-(6-(trifluoromethyl)pyridin-3-yl)pyrimidine-2-carboxamide], for which the figures for the IC50 (on human CD38; at mouse CD38; in test [1]) were 3.8 nM, 1.6 nM and 376 nM, respectively.
For `Cc1cc(C(=O)Nc2cccnc2)nc(-c2cncs2)c1` [Compound 35, 4-methyl-N-(pyridin-3-yl)-6-(thiazol-5-yl)picolinamide], in that order: 210 nM, 68 nM and 3570 nM.
For `Cn1cncc1-c1cccc(C(=O)Nc2cccnc2)n1` [Compound 59, 6-(1-Methyl-1H-imidazol-5-yl)-N-(pyridin-3-yl)picolinamide], in that order: 25 nM, 18 nM and 769 nM.
Turning to `Cn1cncc1-c1ccnc(C(=O)Nc2ccc(C(F)F)nc2)n1` [Compound 147, N-(6-(difluoromethyl)pyridin-3-yl)-4-(1-methyl-1H-imidazol-5-yl)pyrimidine-2-carboxamide], the IC50 at human CD38 came out at 2 nM; at mouse CD38, 6 nM; in test [1], 151 nM.
For `O=C(Nc1ccccc1)c1cc(-n2ccnc2)ccn1` [Compound 5, 4-(1H-imidazol-1-yl)-N-phenylpicolinamide], in that order: 313 nM, 420 nM and 7820 nM.
The like results for `O=C(Nc1ccc(C(F)(F)F)nc1)c1ccnc(-n2ccnc2)n1` [Compound 67, 2-(1H-imidazol-1-yl)-N-(6-(trifluoromethyl)pyridin-3-yl)pyrimidine-4-carboxamide] were, in that order, 4 nM, 9 nM and 409 nM.
For `O=C(N[C@H]1CC[C@H](C(F)F)CC1)c1cncc(-n2ccnc2)n1` [Compound 89, N-((1r,4r)-4-(difluoromethyl)cyclohexyl)-6-(1H-imidazol-1-yl)pyrazine-2-carboxamide], in that order: 22 nM, 10 nM and 915 nM.
With `O=C(NC1CCCOC1)c1cccc(-n2ccnc2)n1` (stereo not drawn) [Compound 49, 6-(1H-imidazol-1-yl)-N-(tetrahydro-2H-pyran-3-yl)picolinamide], the values for the IC50 (at human CD38; at mouse CD38; in test [1]) were 88 nM, 29 nM and 3370 nM, respectively.
For `Cc1ccc(NC(=O)c2cc(-n3ccnc3)ccn2)cn1` [Compound 2, 4-(1H-imidazol-1-yl)-N-(6-methylpyridin-3-yl)picolinamide], in that order: 345 nM, 1010 nM and 3060 nM.
